Assay results published in patent US7247653B2, “Pharmaceutical composition” (Takeda Pharmaceutical Company Limited, priority 2000, dated 2007).
≈ marks a conversion by molar mass, not a printed value.

How the values were obtained:
Assay type in all cases: physicochemical
[1] = Solubility of compound 72 in polyoxyethylene glycerol triricinoleate 35/ethanol solution (Experimental Example 1); conditions: compound 72 (5 mg) in 50 μl polyoxyethylene glycerol triricinoleate 35/ethanol (w/w): 20/80 (Formulation 1), 65/35 (2), 100/0 (3)
Method: Polyoxyethylene glycerol triricinoleate 35/ethanol solution (50 μl) at a ratio (weight ratio) shown in Table 7 was added to compound 72 (5 mg), the mixture was stirred and the solubility was confirmed. The compound 72 dissolved at any mixing ratio, affording a clear solution.

[2] = Solubility of compound 72 in 40% aqueous 2-hydroxypropyl-β-cyclodextrin (Experimental Example 8); conditions: HP-β-CyD concentration 40% aqueous solution
Method: 40% Aqueous solution of 2-hydroxypropyl-β-cyclodextrin (hereinafter abbreviated as HP-β-CyD) (1 ml) was added to compound 72 (5 mg), and the solubility was confirmed by sonication and vortex mixing. When not dissolved, 40% HP-β-CyD solution (1 ml) was further added, and solubility was confirmed after sonication and vortex mixing in the same manner. The concentration at the time of dissolution was taken as solubility.

[3] = Solubility of compound 72 in polyoxyethylene hydrogenated castor oil 50/ethanol solution (Experimental Example 4)
Method: Polyoxyethylene hydrogenated castor oil 50/ethanol solution (50 μl) at a ratio (weight ratio) shown in Table 11 was added to compound 72 (5 mg), the mixture was stirred and the solubility was confirmed. The compound 72 dissolved at any mixing ratio, affording a clear solution.

[4] = Solubilizing effect of solubilizer on compound 72 (Comparative Example 1): stepwise solvent addition, sonication and vortex mixing
Method: Solubilizing Effect of Solubilizer on Compound 72
The solvent (1 ml) shown in Table 6 was added to compound 72 (5 mg), and solubility was confirmed after sonication and vortex mixing. When not dissolved, the solvent (1 ml) was further added, and solubility was confirmed after sonication and vortex mixing in the same manner. The concentration at the time of dissolution was taken as solubility.

[5] = Solubility of compound 72 in aqueous maltosyl-β-cyclodextrin, HPLC method (Experimental Example 9); conditions: 25° C., 3 hr shaking
Method: An aqueous solution of maltosyl-β-cyclodextrin (hereinafter abbreviated as G2-β-CyD) at a concentration shown in Table 18 was added to compound 72 (100 mg) and the mixture was shaken at 25° C. for 3 hr. The solution was filtrated through a 0.45 μm filter, and the solubility of compound 72 was quantitatively determined by HPLC method.

CCOC(=O)C1=CCCCC1S(=O)(=O)Nc1ccc(F)cc1Cl (stereo not drawn) [compound 72, d-ethyl 6-[N-(2-chloro-4-fluorophenyl)sulfamoyl]-1-cyclohexene-1-carboxylate]
Solubility [1]: not less than 100 mg/ml | Solubility (mg/ml) [2]: About 1.7 mg/ml | Solubility ([3]; compound 72 (5 mg) in 50 μl polyoxyethylene hydrogenated castor oil 50/ethanol (w/w) 20/80): Not less than 100 mg/ml | Solubility ([3]; compound 72 (5 mg) in 50 μl polyoxyethylene hydrogenated castor oil 50/ethanol (w/w) 65/35): Not less than 100 mg/ml | solubility of compound 72 in the solvent used ([3]; polyoxyethylene hydrogenated castor oil 50/ethanol, any mixing ratio of Table 11): not less than 100 mg/ml | Solubility ([4]; solvent 10% Pluronic F68 (polyoxyethylene(160)polyoxypropylene(30)glycol), lower concentrations not examined): Not more than 0.5 mg/ml | Solubility ([4]; solvent 10% ethanol, lower concentrations not examined): Not more than 0.5 mg/ml | Solubility ([4]; solvent 10% nicotinamide, lower concentrations not examined): Not more than 0.5 mg/ml | Solubility ([4]; solvent 10% sodium desoxycholate): about 0.7 mg/ml | Solubility ([4]; solvent 10% sodium salicylate, lower concentrations not examined): Not more than 0.5 mg/ml | Solubility ([4]; solvent water): 13 µg/mL (≈ 0.0359 mM) | Solubility ([5]; G2-β-CyD concentration 10%): 4900 µg/mL (≈ 13.5 mM) | Solubility ([5]; G2-β-CyD concentration 20%): 13000 µg/mL (≈ 35.9 mM) | Solubility ([5]; G2-β-CyD concentration 40%): 31700 µg/mL (≈ 87.6 mM)
